Laboratory results reported in patent publication US7138361B2, “Herbicidal heterocycles” (E. I. du Pont de Nemours and Company, priority 2000, dated 2006).

Tests used:
Assay type in all cases: in vivo
[1] = tested on: smallflower flatsedge (Cyperus difformis); assay: Test C flooded paddy test; conditions: for Plant response rating, Flatsedge: scale 0 to 100 (0 no effect, 100 complete control)
Summary of the method: (§1)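 Visual ratings (0 = no effect, 100 = complete control) were made 12–14 days after treatment, relative to greenhouse controls. Plants in the flooded paddy test were rice, smallflower flatsedge, duck salad and barnyardgrass, treated at the 2-leaf stage.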

[2] = tested on: barnyardgrass (Echinochloa crus-galli); assay: Test C flooded paddy test; conditions: for Plant response rating, Barnyardgrass: scale 0 to 100 (0 no effect, 100 complete control)
Summary of the method: as §1

[3] = tested on: duck salad (Heteranthera limosa); assay: Test C flooded paddy test; conditions: for Plant response rating, Ducksalad: scale 0 to 100 (0 no effect, 100 complete control)
Summary of the method: as §1

rice (Oryza saliva) [4] = assay: Test C flooded paddy test; conditions: for Plant response rating, Rice: scale 0 to 100 (0 no effect, 100 complete control)
Summary of the method: as §1

[5] = tested on: giant foxtail (Setaria faberii); assay: Test B postemergence
Summary of the method: (§2)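 Visual injury scores, 0 = no effect to 100 = complete control, assigned against controls after 13 to 15 days in the greenhouse. Compounds formulated in non-phytotoxic solvent plus surfactant and applied to soil after planting (pre) or onto foliage of 1- to 4-leaf plants (post).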

[6] = tested on: pigweed (Amaranthus retroflexus); assay: Test B postemergence
Summary of the method: as §2

[7] = tested on: velvetleaf (Abutilon theophrasti); assay: Test B postemergence
Summary of the method: as §2

[8] = tested on: barnyardgrass (Echinochloa crus-galli); assay: Test B postemergence
Summary of the method: as §2

[9] = tested on: morning glory (Ipomoea hederacea); assay: Test B postemergence
Summary of the method: as §2

[10] = tested on: lambsquarters (Chenopodium album); assay: Test B postemergence
Summary of the method: as §2

wild oat (Avena fatua) = assay: Test B postemergence
Summary of the method: as §2

[11] = tested on: crabgrass (Digitaria sanguinalis); assay: Test B postemergence
Summary of the method: as §2

[12] = tested on: wheat (Triticum aestivum); assay: Test B postemergence
Summary of the method: as §2

corn (Zea mays) [13] = assay: Test B postemergence
Summary of the method: as §2

[14] = tested on: blackgrass (Alopecurus myosuroides); assay: Test B postemergence
Summary of the method: as §2

[15] = tested on: cocklebur (Xanthium strumarium); assay: Test B postemergence
Summary of the method: as §2

[16] = tested on: Surinam grass (Brachiaria decumbens); assay: Test B postemergence
Summary of the method: as §2

[17] = tested on: giant foxtail (Setaria faberii); assay: Test B preemergence
Summary of the method: as §2

[18] = tested on: pigweed (Amaranthus retroflexus); assay: Test B preemergence
Summary of the method: as §2

[19] = tested on: velvetleaf (Abutilon theophrasti); assay: Test B preemergence
Summary of the method: as §2

[20] = tested on: barnyardgrass (Echinochloa crus-galli); assay: Test B preemergence
Summary of the method: as §2

[21] = tested on: morning glory (Ipomoea hederacea); assay: Test B preemergence
Summary of the method: as §2

[22] = tested on: lambsquarters (Chenopodium album); assay: Test B preemergence
Summary of the method: as §2

[23] = tested on: crabgrass (Digitaria sanguinalis); assay: Test B preemergence
Summary of the method: as §2

corn (Zea mays) [24] = assay: Test B preemergence
Summary of the method: as §2

rice (Oryza saliva) [25] = assay: Test B preemergence
Summary of the method: as §2

[26] = tested on: cocklebur (Xanthium strumarium); assay: Test B preemergence
Summary of the method: as §2

[27] = tested on: Surinam grass (Brachiaria decumbens); assay: Test B preemergence
Summary of the method: as §2

[28] = Flooded Paddy, Rate 500 g/ha, scale 0 to 100, 0 no effect, 100 complete control
[29] = flooded paddy test, Rate 125 g/ha
[30] = flooded paddy test, Rate 250 g/ha
[31] = flooded paddy test, Rate 62 g/ha, visually evaluated after 12 to 14 days, 0 = no effect, 100 = complete control
[32] = Rate 125 g/ha, scale 0 to 100, 0 no effect, 100 complete control
[33] = Rate 500 g/ha, scale 0 (no effect) to 100 (complete control), 13 to 15 days
[34] = Preemergence, Rate 500 g/ha, scale 0 to 100, 0 no effect, 100 complete control
[35] = preemergence, Rate 125 g/ha, scale of 0 to 100 where 0 is no effect and 100 is complete control, 13 to 15 days

`CC(C)(C)c1ccn(C2CCN(c3ccc(F)c(C(F)(F)F)c3)C2=O)n1` (stereo not shown) [Compound 146] was tested, and the “Flatsedge plant response rating” value [1, 28] was 95, the “Plant response rating, Flatsedge” value [1, 29] was 95 and the “Plant response rating, Flatsedge” value [1, 30] was 95. For the same molecule, the “Plant response rating (scale 0 to 100), Flatsedge” value [1, 31] was 60, the “Barnyardgrass plant response rating” value [2, 28] was 100 and the “Plant response rating, Barnyardgrass” value [2, 29] was 100. The “Plant response rating, Barnyardgrass” value [2, 30] was 100, the “Plant response rating (scale 0 to 100), Barnyardgrass” value [2, 31] was 75 and the “Ducksalad plant response rating” value [3, 28] was 90. For the same molecule, the “Plant response rating, Ducksalad” value [3, 29] was 65, the “Plant response rating, Ducksalad” value [3, 30] was 80 and the “Plant response rating (scale 0 to 100), Ducksalad” value [3, 31] was 40. The “Rice plant response rating” value (rice (Oryza saliva) [4]; [28]) was 85, the “Plant response rating, Rice” value (rice (Oryza saliva) [4]; [29]) was 50 and the “Plant response rating, Rice” value (rice (Oryza saliva) [4]; [30]) was 50. The “Plant response rating (scale 0 to 100), Rice” value (rice (Oryza saliva) [4]; [31]) was 15, the “Plant response rating, Foxtail, Giant” value [5, 32] was 0 and the “Plant response rating, Foxtail, Giant” value [5, 33] was 70. The “Plant response rating, Pigweed” value [6, 32] was 0, the “Plant response rating, Pigweed” value [6, 33] was 70 and the “Plant response rating, Velvetleaf” value [7, 32] was 0. The “Plant response rating, Velvetleaf” value [7, 33] was 0, the “Plant response rating, Barnyardgrass” value [8, 32] was 0 and the “Plant response rating, Barnyardgrass” value [8, 33] was 90. For the same molecule, the “Plant response rating, Morningglory” value [9, 32] was 0, the “Plant response rating, Morningglory” value [9, 33] was 0 and the “Plant response rating, Lambsquarters” value [10, 32] was 80. The “Plant response rating, Lambsquarters” value [10, 33] was 100, the “Plant response rating, Wild Oat” value (wild oat (Avena fatua); [32]) was 0 and the “Plant response rating, Wild Oat” value (wild oat (Avena fatua); [33]) was 0. The “Plant response rating, Crabgrass” value [11, 32] was 0, the “Plant response rating, Crabgrass” value [11, 33] was 60 and the “Plant response rating, Wheat” value [12, 32] was 0. For the same molecule, the “Plant response rating, Wheat” value [12, 33] was 0, the “Plant response rating, Corn” value (corn (Zea mays) [13]; [32]) was 0 and the “Plant response rating, Corn” value (corn (Zea mays) [13]; [33]) was 0. For the same molecule, the “Plant response rating, Blackgrass” value [14, 32] was 0, the “Plant response rating, Blackgrass” value [14, 33] was 0 and the “Plant response rating, Cocklebur” value [15, 32] was 0. The “Plant response rating, Cocklebur” value [15, 33] was 0, the “Plant response rating, Surinam grass” value [16, 32] was 0 and the “Plant response rating, Surinam grass” value [16, 33] was 0. The “Plant response rating, Foxtail, Giant” value [17, 34] was 100, the “Plant response rating, Foxtail, Giant” value [17, 35] was 100 and the “Plant response rating, Pigweed” value [18, 34] was 100. The “Plant response rating, Pigweed” value [18, 35] was 100, the “Plant response rating, Velvetleaf” value [19, 34] was 20 and the “Plant response rating, Velvetleaf” value [19, 35] was 0. For the same molecule, the “Plant response rating, Barnyardgrass” value [20, 34] was 100, the “Plant response rating, Barnyardgrass” value [20, 35] was 90 and the “Plant response rating, Morningglory” value [21, 34] was 40. For the same molecule, the “Plant response rating, Morningglory” value [21, 35] was 0, the “Plant response rating, Lambsquarters” value [22, 34] was 100 and the “Plant response rating, Lambsquarters” value [22, 35] was 100. The “Plant response rating, Crabgrass” value [23, 34] was 100, the “Plant response rating, Crabgrass” value [23, 35] was 100 and the “Plant response rating, Corn” value (corn (Zea mays) [24]; [34]) was 0. The “Plant response rating, Corn” value (corn (Zea mays) [24]; [35]) was 0, the “Plant response rating, Rice” value (rice (Oryza saliva) [25]; [34]) was 0 and the “Plant response rating, Rice” value (rice (Oryza saliva) [25]; [35]) was 0. For the same molecule, the “Plant response rating, Cocklebur” value [26, 34] was 0, the “Plant response rating, Cocklebur” value [26, 35] was 0 and the “Plant response rating, Surinam grass” value [27, 34] was 100. The “Plant response rating, Surinam grass” value [27, 35] was 40.
